The values that follow are results of earlier work, collected in publication PMC11123921, “Synthesis and Evaluation of 5-(Heteroarylmethylene)hydantoins as Glycogen Synthase Kinase-3β Inhibitors” (Pharmaceuticals, 2024).

The IC50 is the concentration that inhibits the measured activity by half.

One data set deals with cancer migration. Also on record: method as in PMID 20869139. The following applies: cited from earlier work.
The target of a further data set is GSK-3β (Homo sapiens, UniProt P49841). The following applies: cited from earlier work.
Sequence of GSK-3β (P49841 whole entry): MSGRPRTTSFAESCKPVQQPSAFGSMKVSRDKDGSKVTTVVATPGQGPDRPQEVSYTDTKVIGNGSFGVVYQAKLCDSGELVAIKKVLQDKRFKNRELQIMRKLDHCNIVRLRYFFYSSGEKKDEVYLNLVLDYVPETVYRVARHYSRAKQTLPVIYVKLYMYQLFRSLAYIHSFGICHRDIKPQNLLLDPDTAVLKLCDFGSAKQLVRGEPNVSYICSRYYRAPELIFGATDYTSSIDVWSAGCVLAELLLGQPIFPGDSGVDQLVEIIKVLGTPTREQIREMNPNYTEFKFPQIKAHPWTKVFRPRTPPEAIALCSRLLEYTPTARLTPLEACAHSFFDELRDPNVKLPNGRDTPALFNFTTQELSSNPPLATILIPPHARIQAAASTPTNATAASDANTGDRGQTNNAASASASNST

With `O=C1NC(=O)/C(=C/c2cccc(-c3cccs3)n2)N1` [Compound 16], the “activity as cancer migration inhibitors” value in the data set with cancer migration was “notable activity”.

With indirubin-3-monoxime, the IC50 at GSK-3β was 22 nM.
